For data set [1] the following is noted: mouse conventional liver microsomes; cited from earlier work. Background: Liver microsomes are a subcellular fraction often used to study metabolism.
In data set [2] the target is T1, GABAB receptor (Homo sapiens, UniProt O75899+Q9UBS5). The settings on record: Perdona et al, Neuropharmacology 2011; read-out: EC50, positive modulation of EC20 GABA-evoked [35S]GTPγS binding signal; cited from earlier work. A general note: GTPγS resists hydrolysis and so accumulates on activated G proteins.
The conditions of data set [3]: rat conventional liver microsomes; cited from earlier work.
Data set [4] concerns rats. The settings on record: significance only at high doses (30 and 100 mg/kg); cited from earlier work.
Data set [5] has as its system mice. The note with it: cited from earlier work.
The conditions of data set [6]: human conventional liver microsomes; cited from earlier work.
Data set [7] deals with T2, GABAB receptor (Rattus norvegicus, UniProt O88871+Q9Z0U4).
T2 construct: from tissue; host or cells: rat brain cortex membranes
The data set is described as follows: In vitro [35S]GTPγS binding assay in rat cortical membranes. It counts as biochemical. Here is the method:
In Vitro [^35S]GTPγS Binding Assay in Rat Cortical Membranes
Cortices of freshly harvested rat brains were dissected on an ice-cold surface and homogenized by a glass Dounce homogeniser immediately in ice-cold buffer containing 50 mM Tris, 5 mM MgCl2 and 1 mM EDTA (pH=7.6). Tissue homogenates were centrifuged at 40000 g for 15 min at 4° C. Membrane pellets were resuspended in the same buffer and membranes were incubated for 10 min at 30° C. in a shaking water bath to eliminate endogenous GABA. Homogenates were centrifuged again under the same conditions. The final pellets were resuspended in ice-cold buffer (pH=7.6) containing 50 mM Tris, 100 mM NaCl, 7 mM MgCl2, 1 mM EDTA and 1 mM dithiotreithol (DTT) to yield a concentration of 20 mg tissue weight/ml and frozen at −70° C. until use. The assay was done in a buffer containing 50 mM Tris (pH=7.4), 100 mM NaCl, 7 mM MgCl2, 1 mM EDTA and 1 mM DTT. Each assay tube contained 150 μL GDP (in a final concentration of 50 μM), 100 μL ligand and 125 μL of the membrane suspension (250 μg tissue/tube). The assay tubes were preincubated for 10 min at 30° C. to assure equilibrium. Nonspecific binding was determined in the presence of 10 μM GTPγS; basal binding was determined in the presence of buffer only. After addition of […] [^35S]GTPγS in a volume of 25 μL to the tubes, membranes were incubated for an additional 60 min at 30° C. The assay was terminated by rapid filtration through Packard UniFilter GF/B using a Packard harvester and washed four times with 1 ml ice-cold buffer. After drying the filters at 40° C. for 1 h, 40 μL Microscint (Packard) was added to the filters and radioactivity of the filters was determined by a TopCount NXT (PerkinElmer, Waltham, Mass.; Alper and Nelson, Eur. J. Pharmacol. 1998, 343, 303-312; Rinken et al, Biochem. Pharmacol. 1999, 57, 155-162). Data thus gathered were used to determine PAM EC50 values for each compound as primary in vitro activity end point.

Data set [8] deals with T1, GABAB receptor. The settings on record: compounds of Faghih et al., US 2016/0304527 A1; cited from earlier work.
Data set [9] has as its system adult rats. Nature of the data set: Foot shock-induced ultrasonic vocalization (USV) in adult rats. In kind it is in vivo, rat. The settings on record: Rattus norvegicus, po; 10 mg/kg per os, 1 h before shocking, male Wistar rats. On the procedure: Foot Shock-Induced Ultrasonic Vocalization (USV) in Adult Rats
(§1) Under stressful conditions, adult rats emit 22 kHz ultrasounds that can be reduced by various pharmacological treatments (De Vry et al, Eur. J. Pharmacol. 1993, 249, 331-339; Sanchez, Eur. J. Pharmacol. 2003, 463, 133-143). […] Therefore, a foot shock-induced vocalization paradigm in adult rats was used to assess in vivo efficacy of centrally acting GABAB receptor ligands. Behavioral measurements were carried out on male Wistar rats (200-250 g, Toxicoop, Hungary). Rats were housed in groups of four in plastic cages with a wire grid top in a temperature and light-controlled laboratory animal care unit (22±2° C., 12-h light/dark cycle, lights on at 6:00 AM) with ad libitum access to commercial pellet rat food and tap water. Investigations were approved by the Local Ethical Committee of Gedeon Richter Plc. and were carried out in strict compliance with the European Directive 2010/63/EU regarding the care and use of laboratory animals for experimental procedures and all efforts were made to minimize the number of animals as well as their suffering. In order to evoke emission of ultrasounds, animals were footshocked after a habituation period of 30 s (6 shocks, 1 s, 0.8 mA each, inter-shock interval 10 s) in a sound attenuated shocking chamber (Experimetria, 40×40×80 cm). […] Vocalizations were measured right after the last footshock for 10 min with a Metris Sonotrack system and the total time of vocalizations was registered. Vocalization of parallel vehicle treated animals was considered as control value and inhibition percent was calculated for each compound. At approximately 75 min after treatment and behavioral measurements, blood and brain samples were harvested in order to determine exposures associated with in vivo activity.

A short description of data set [10]: Plasma and brain exposure after USV measurement. In kind it is in vivo. The settings on record: rat, per os, about 75 min after treatment, formulation SpD1. On the procedure: as §1
Where [11] appears, read: [35S]GTPγS binding, rat cortical membranes, read-out: In vitro PAM potency (PAM EC50).

Like-named read-outs stand apart in the source and are kept apart here.

T2 sequence (O88871 41-940): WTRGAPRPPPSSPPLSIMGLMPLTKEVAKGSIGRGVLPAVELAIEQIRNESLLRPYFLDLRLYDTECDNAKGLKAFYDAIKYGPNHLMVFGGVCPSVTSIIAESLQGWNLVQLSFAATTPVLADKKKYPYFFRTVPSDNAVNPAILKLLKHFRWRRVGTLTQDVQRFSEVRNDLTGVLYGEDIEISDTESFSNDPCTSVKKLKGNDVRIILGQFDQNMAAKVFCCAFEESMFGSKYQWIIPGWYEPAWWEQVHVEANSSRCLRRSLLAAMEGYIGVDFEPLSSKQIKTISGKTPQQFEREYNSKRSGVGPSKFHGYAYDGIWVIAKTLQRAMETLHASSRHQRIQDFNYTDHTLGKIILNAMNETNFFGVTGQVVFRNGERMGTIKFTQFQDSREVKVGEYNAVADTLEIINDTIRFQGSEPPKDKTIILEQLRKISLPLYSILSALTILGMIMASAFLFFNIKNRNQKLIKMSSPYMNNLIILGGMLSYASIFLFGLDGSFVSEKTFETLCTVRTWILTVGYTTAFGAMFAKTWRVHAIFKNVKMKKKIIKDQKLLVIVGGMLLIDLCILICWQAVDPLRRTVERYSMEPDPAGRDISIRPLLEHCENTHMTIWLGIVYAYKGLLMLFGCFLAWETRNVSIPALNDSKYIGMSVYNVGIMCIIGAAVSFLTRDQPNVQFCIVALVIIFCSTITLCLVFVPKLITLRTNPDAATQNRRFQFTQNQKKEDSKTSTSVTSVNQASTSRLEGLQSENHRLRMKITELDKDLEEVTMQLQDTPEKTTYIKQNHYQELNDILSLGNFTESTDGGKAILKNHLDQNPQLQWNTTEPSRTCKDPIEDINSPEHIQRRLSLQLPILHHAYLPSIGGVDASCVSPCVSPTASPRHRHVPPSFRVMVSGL
T2 sequence (Q9Z0U4 17-960 limits assumed): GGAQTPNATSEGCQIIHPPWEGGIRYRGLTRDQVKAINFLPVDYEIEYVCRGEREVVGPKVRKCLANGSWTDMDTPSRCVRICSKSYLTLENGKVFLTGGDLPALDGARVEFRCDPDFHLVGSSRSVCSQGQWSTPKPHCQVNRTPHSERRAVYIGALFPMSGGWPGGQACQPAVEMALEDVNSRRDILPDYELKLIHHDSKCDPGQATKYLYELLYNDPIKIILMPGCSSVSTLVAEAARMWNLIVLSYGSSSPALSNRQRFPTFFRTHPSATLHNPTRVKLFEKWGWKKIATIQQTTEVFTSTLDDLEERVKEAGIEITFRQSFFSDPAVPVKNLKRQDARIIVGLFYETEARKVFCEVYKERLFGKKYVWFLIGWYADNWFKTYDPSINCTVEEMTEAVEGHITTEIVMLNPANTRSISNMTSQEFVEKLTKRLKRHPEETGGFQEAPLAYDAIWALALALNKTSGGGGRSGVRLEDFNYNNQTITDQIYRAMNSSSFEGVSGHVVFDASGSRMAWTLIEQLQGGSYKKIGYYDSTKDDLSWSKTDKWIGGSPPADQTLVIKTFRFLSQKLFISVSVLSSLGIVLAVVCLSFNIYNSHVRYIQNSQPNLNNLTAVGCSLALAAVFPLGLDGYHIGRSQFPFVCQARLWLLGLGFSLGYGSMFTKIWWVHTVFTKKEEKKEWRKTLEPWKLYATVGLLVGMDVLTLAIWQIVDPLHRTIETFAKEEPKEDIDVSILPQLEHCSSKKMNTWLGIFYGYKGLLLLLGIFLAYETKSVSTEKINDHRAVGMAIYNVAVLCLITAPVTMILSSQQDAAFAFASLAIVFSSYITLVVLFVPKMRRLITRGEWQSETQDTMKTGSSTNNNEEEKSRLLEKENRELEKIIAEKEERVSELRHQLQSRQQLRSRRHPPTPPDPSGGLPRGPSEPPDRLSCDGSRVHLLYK
T1 sequence (O75899 42-941): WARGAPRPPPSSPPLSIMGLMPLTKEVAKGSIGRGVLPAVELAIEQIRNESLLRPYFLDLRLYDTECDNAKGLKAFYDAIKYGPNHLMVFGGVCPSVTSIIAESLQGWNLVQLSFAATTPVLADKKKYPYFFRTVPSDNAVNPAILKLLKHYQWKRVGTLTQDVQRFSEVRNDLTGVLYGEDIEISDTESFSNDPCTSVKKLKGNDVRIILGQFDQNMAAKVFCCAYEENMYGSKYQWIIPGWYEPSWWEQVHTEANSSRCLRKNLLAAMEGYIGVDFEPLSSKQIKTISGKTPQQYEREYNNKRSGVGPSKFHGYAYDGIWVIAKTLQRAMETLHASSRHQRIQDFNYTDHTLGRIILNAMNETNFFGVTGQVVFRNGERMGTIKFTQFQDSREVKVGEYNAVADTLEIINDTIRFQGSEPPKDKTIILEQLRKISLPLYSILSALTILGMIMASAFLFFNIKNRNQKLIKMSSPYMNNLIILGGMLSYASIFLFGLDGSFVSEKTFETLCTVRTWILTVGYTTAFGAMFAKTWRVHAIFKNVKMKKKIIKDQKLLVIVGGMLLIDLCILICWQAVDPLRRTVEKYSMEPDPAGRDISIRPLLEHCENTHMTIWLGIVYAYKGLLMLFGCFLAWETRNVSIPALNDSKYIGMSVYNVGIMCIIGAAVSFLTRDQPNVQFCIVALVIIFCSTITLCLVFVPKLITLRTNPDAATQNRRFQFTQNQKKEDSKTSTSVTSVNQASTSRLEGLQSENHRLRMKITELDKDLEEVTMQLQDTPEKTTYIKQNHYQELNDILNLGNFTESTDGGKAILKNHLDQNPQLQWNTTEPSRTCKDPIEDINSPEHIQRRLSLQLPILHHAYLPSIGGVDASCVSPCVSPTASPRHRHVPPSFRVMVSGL
T1 sequence (Q9UBS5 15-961 limits assumed): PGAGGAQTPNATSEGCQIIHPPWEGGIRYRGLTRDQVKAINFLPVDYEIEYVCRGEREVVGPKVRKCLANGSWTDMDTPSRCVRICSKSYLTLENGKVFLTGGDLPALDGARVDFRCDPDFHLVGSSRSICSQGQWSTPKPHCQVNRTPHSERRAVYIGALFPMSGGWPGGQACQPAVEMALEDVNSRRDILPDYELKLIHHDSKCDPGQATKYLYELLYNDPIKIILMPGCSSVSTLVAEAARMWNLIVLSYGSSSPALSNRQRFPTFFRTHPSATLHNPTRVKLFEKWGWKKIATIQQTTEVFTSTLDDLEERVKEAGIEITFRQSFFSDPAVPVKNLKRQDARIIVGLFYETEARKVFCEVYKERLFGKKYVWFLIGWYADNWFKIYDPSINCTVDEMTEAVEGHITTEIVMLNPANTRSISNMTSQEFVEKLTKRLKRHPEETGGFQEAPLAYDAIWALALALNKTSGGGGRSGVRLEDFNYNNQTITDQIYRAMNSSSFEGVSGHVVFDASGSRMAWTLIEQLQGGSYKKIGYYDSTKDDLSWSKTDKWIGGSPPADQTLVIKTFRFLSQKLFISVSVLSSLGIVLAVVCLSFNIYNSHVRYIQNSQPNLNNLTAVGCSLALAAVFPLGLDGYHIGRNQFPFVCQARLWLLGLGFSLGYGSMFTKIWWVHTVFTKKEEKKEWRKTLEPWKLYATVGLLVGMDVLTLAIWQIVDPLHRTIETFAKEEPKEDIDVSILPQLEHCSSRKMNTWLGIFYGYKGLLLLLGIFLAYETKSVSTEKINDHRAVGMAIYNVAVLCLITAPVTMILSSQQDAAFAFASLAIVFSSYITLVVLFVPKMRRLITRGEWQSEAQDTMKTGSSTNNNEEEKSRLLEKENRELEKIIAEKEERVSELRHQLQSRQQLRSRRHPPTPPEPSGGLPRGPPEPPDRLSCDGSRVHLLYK

A word on the EC50: it is the concentration at which the effect is half-maximal. Turning to `Cc1cc(N2CCCCC2CCO)n2nc(-c3ccc(Cl)cc3)cc2n1` (centres unmarked) [CMPPE, 2-{1-[2-(4-chlorophenyl)-5-methylpyrazolo[1,5-a]pyrimidin-7-yl]-2-piperidinyl}ethanol], the Clint in data set [1] was 1.18±0.4 mL/min/g liver; in data set [3], 0.31±0.07 mL/min/g liver; in data set [6], 0.19±0.02 mL/min/g liver. For the same molecule, the EC50 in data set [2] is 2570 nM; in data set [7] (applicant's test system, read-out: EC50 in our in vitro [35S]GTPγS test system) it was 611 nM. Further, the “Efficacy in food consumption test” value in data set [4] was “mild efficacy”. Further, in data set [5], the “ED50, potentiation of baclofen-induced muscle relaxation” value is recorded as 53.8 mg/kg.
In the case of `CCC(c1ccc(Cl)cc1)c1cc2nc(C)cc(N3CCCCC3CCO)n2n1` (centres unmarked) [Example 3-1], the “Binding potency (in words)” value in [8] is “nanomolar”.
By inhibition in vivo is commonly meant the change of the read-out against control, counted positive when it falls. Lower therefore signals a response near the control. On to `CC[C@]1(C(=O)O)CCCN(c2c(C(C)C)c(C)nc3cc(-c4ccc(C(F)(F)F)c(F)c4)nn23)C1` [Example 14, (3S)-3-Ethyl-1-{2-[3-fluoro-4-(trifluoromethyl)phenyl]-5-methyl-6-(propan-2-yl)pyrazolo[1,5-ala]pyrimidin-7-yl}piperidine-3-carboxylic acid], for which the inhibition in vivo at 10 mg/kg in data set [9] is 47%. Also, in [10], the “Brain exposure at 1 mg/kg” value is 1962 ng/g and the “Plasma exposure at 1 mg/kg” value is on record as 2323 ng/mL. Also, in data set [7] (setting [11]), the EC50 lay in the range of 10 to 100 nM.
The like results for `Cc1nc2cc(-c3ccc(Cl)cc3)nn2c(N2CCC[C@](C(=O)O)(C(C)C)C2)c1C(C)C` [Example 9, (3S)-1-[2-(4-Chlorophenyl)-5-methyl-6-(propan-2-yl)pyrazolo[1,5-a]pyrimidin-7-yl]-3-(propan-2-yl)piperidine-3-carboxylic acid] were, in that order, 39%, 1849 ng/g, 1807 ng/mL and 10 to 100 nM.
The like results for `CC[C@]1(C(=O)O)CCCN(c2c(C(C)C)c(C)nc3c(F)c(-c4ccc(C(F)(F)F)cc4)nn23)C1` [Example 15, (3S)-3-Ethyl-1-[3-fluoro-5-methyl-6-(propan-2-yl)-2-[4-(trifluoromethyl)phenyl]pyrazolo[1,5-a]pyrimidin-7-yl]piperidine-3-carboxylic acid] were, in that order, 85%, 1377 ng/g, 1317 ng/mL and 1 to 10 nM.

Source of the values: patent publication US10960007B2, “Pharmacologically active aryl-substituted pyrazolo[1,5-a]pyrimidine derivatives” (RICHTER GEDEON NYRT., priority 2017, dated 2021).
